Three molecules from PMC8000974, “Tumor Activated Cell Penetrating Peptides to Selectively Deliver Immune Modulatory Drugs” (Pharmaceutics, 2021) can be followed below.

Series [1] deals with B16F10 melanoma tumors. Description: In vivo murine therapy experiments. Details: species or system mice. The settings on record: for Tumor control (tumor volume) vs control untreated: day 5 and day 9, 10 tumors per group. As for the experimental part: Female six-week-old C57Bl6 albino mice were injected with 50,000 B16F10 melanoma cells subcutaneously in both thighs using a 1:1 mixture of PBS:Matrigel. The tumors were palpable five days after implant at which point treatment was initiated. Due to the rapid growth of B16F10 tumor in mice, dosing began when tumors reached an average size of 30 ± 13 mm^3. Animals were divided into four treatment groups: control, intratumoral (i.t.) resiquimod (30 nmoles per tumor), i.t. ACPP-resiquimod (30 nmoles per tumor), or i.v. ACPP-resiquimod (60 nmoles per mouse). Mice were given free drug or ACPP conjugated on day 5 and day 9. Each treatment group had five mice with 10 tumors. Tumor volumes were measured bi-weekly and mice weighed weekly. Mice were sacrificed when the tumor size reached 1500 mm^3.

Series [2] concerns MC38 colon adenocarcinoma cells. Description: Cell culture Cy5 imaging of peptide uptake. Type of series: cell-based. The settings on record: murine MC38 cells, 1 μM peptide in 1% FBS, 2 h at room temperature then 2 h in media, fixed. As for the experimental part: (§1) Murine B16F10 melanoma and LL2 Lewis lung carcinoma cell lines were purchased from ATCC. MC38 colon adenocarcinoma cell line was purchased from Kerafast (Boston, MA, USA). Cell lines were grown in Dulbecco’s modified eagle’s medium (DMEM) + 10% fetal bovine serum (FBS) media. All cell lines were maintained at low passage and routinely tested for mycoplasma. For Cy5 imaging, cells were resuspended and incubated with Cy5 labeled r9 or ACPP at 1 μM in 1% FBS. The cells were incubated for 2 h under rotation and covered to be protected from light at room temperature. Cells were then spun down (5 min at 2000 rpm) and resuspended in cell media for an additional 2 h. The cells were then fixed with 4% paraformaldehyde in phosphate buffered saline (PBS), washed twice with PBS and incubated with 4′,6-diamidino-2-phenylindole (DAPI) stain (1:500). Finally, the cells were washed with PBS and mounted on slides using Fluoromount mounting media (Sigma, St Louis, MI, USA). Cells were imaged using a Keyence microscope with a 100× oil objective and high-resolution settings.

The test system of a further series is B16F10 melanoma cells. The experiment in a line: Cell culture Cy5 imaging of peptide uptake. Type of series: cell-based. The settings on record: murine B16 cells, 1 μM peptide in 1% FBS, 2 h at room temperature then 2 h in media, fixed. As for the experimental part:
as §1

Series [3] relates to LL2 Lewis lung carcinoma cells. Description: Cell culture Cy5 imaging of peptide uptake. Type of series: cell-based. The settings on record: murine LL2 cells, 1 μM peptide in 1% FBS, 2 h at room temperature then 2 h in media, fixed. As for the experimental part:
as §1

Series [4] concerns B16F10 melanoma tumors. Description: Tissue drug concentration (LC-MS/MS) after i.v. ACPP-resiquimod. Type of series: in vivo. The settings on record: B16F10 tumor bearing C57Bl6 albino mice, 30 nmoles ACPP-resiquimod i.v., 6 h post injection, free resiquimod by LC-MS/MS. As to the method:
Female six-week-old C57Bl6 albino mice were injected with 50,000 B16F10 melanoma cells subcutaneously into both thighs using a 1:1 PBS:Matrigel. Mice were i.v. injected with 30 nmoles of ACPP-resiquimod in 100 µL sterile water and 6 h post injection mice were sacrificed. Tumor and adjacent muscle tissue were excised, weighed, and flash frozen in liquid N2. A mixture of 44 mL H2O, 44 mL acetonitrile, and 2 mL glacial acetic acid was used as the diluent. Nine times w/v of diluent was added to the frozen tissue. Tissues were dissociated on ice with a Sonic dismemberator Model 500 (Fisher Scientific) tissue probe homogenizer using 5 s pulse of 20% amplitude four to five times. The samples were spun down to obtain clear supernatant. For muscle tissue, addition passage through a 0.22 µm Nylon filter (Costar Spin X; purchased from Sigma, St Louis, MI, USA) was used to obtain clear supernatant. A fixed volume of tissue supernatant from each sample was injected on the LC-MS/MS (Agilent 1100 LC with MSD Trap XCT, Santa Clara, CA, USA). Each sample was run in duplicate on the LC-MS/MS to determine reproducibility of integrated ion current for each sample. […] Concentration of unknown samples were then calculated (Graphpad PRISM).

Consider `CCOCc1nc2c(N)nc3ccccc3c2n1CC(C)(C)O` [resiquimod, Resiquimod, reference compound], for which the “Tumor control (tumor volume) vs control untreated” value in the series on B16F10 melanoma tumors [1] (i.t. 30 nmoles per tumor) is “improved tumor control”. Further, the “Mouse survival, dose response” value with B16F10 melanoma tumors [1] (i.t. injection, 30 nmoles compared to 10 nmoles, Log-rank (Mantel–Cox) test) is given as “statistically improved survival”.

Take `CCN1C(=CC=CC=CC2=[N+](CCCCCC(=O)NCCN3C(=O)CC(SC[C@@H](NC(=O)[C@@H](CCCNC(=N)N)NC(=O)[C@@H](CCCNC(=N)N)NC(=O)[C@@H](CCCNC(=N)N)NC(=O)[C@@H](CCCNC(=N)N)NC(=O)[C@@H](CCCNC(=N)N)NC(=O)[C@@H](CCCNC(=N)N)NC(=O)[C@@H](CCCNC(=N)N)NC(=O)[C@@H](CCCNC(=N)N)NC(=O)[C@H](N)CCCNC(=N)N)C(N)=O)C3=O)c3ccc(S(=O)(=O)[O-])cc3C2(C)C)C(C)(C)c2cc(S(=O)(=O)O)ccc21` (stereo partly shown) [Cy5 labeled r9]: the “Cell uptake (Cy5 fluorescence microscopy)” value (in series [2]; in the series on B16F10 melanoma cells; in series [3]) was “readily taken up” in each case.

As to “cyclo(RGD)fc-MC-HN-peg8-e9-oPLGC(Me)AG-r9-c-(MC-VC-PABC-resiquimod-CONH2 [ACPP-resiquimod]”, the “Resiquimod drug concentration in tumor tissue” value with B16F10 melanoma tumors [4] is 1142.3 ± 111.7 nM. In addition, in the series with B16F10 melanoma tumors [4] (negative value from calibration background noise), the “Resiquimod drug concentration in peri-tumoral muscle tissue” value was -5.8 ± 3.5 nM. In addition, the “Antitumor efficacy compared with free resiquimod” value in the series on B16F10 melanoma tumors [1] (ACPP-resiquimod i.t. or i.v. vs i.t. free resiquimod, total drug per animal constant) is reported as “as efficacious as free resiquimod”. Further, the “Tumor control (tumor volume) vs control untreated” value in the series on B16F10 melanoma tumors [1] (i.t. 30 nmoles per tumor) and in the series on B16F10 melanoma tumors [1] (i.v. 60 nmoles per mouse) was “improved tumor control” throughout.
